According to article PMC10607160 (International Journal of Molecular Sciences, 2023):

What was measured:
[1] = Solubility issue noted in the binding experiments; format: physicochemical; settings: in binding assay
Method: The data were fitted to a one-site competition model via nonlinear regression and the IC50 values were determined as described in Section 3.4.

[2] = target: E. coli Trx1 / E. coli TrxR (thioredoxin system) (Escherichia coli, UniProt P0AA25); assay: Disulfide bond reduction assay by EcoTrx1 (NADPH absorbance at 340 nm); format: biochemical; settings: for Absorbance Asample1 / Absorbance Asample2 / Absorbance Average1, 2: A340, with TrxR
E. coli Trx1 / E. coli TrxR (thioredoxin system), sequence (P0AA25 2-109): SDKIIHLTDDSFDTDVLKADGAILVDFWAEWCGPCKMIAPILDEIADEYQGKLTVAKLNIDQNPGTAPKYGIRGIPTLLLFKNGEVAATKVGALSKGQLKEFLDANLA
Method: The assay employed was based on changes in the absorbance at 340 nm from the oxidation of NADPH using a modified version of the protocol laid out in [90]. Briefly, the decrease in A340 was measured in 96-well plates containing 100 μL of 200 mM potassium phosphate pH 7.4, 1 mM EDTA, 0.1 mg/mL BSA, 200 μM NADPH, 2 μM E. coli Trx1 and 10 nM E. coli TrxR for 5 min at 25 °C with insulin at a final concentration of 0.067 mM (0.2 mM disulfides) (see Table S2). The reduction of con7 was measured at a final concentration of 0.2 mM (see Table S3). Blanks were samples without EcoTrxR.
Figure 4 Reduction of (A) con7 and (B) insulin by EcoTrx1. The assay mixture contains 200 mM potassium phosphate pH 7.4, 1 mM EDTA, 0.1 mg/mL BSA, 200 μM NADPH, 2 μM Escherichia coli Trx1, 10 nM E. coli TrxR, (A) 0.2 mM con7 or (B) 0.067 mM (0.2 mM disulfides) insulin. The reaction was carried out at 25 °C by monitoring the decrease of NADPH absorbance at 340 nm for (A) con7 in the absence ( [drawing 1] ) or presence of TrxR ( [drawing 2] ) and (B) insulin in the absence ( [drawing 3] ) or presence of TrxR ( [drawing 4] ).

[3] = target: T1, human GnRHR I (Homo sapiens, UniProt P30968); assay: Competitive radioligand binding (125I-DTyr6-His5-GnRH) on membranes from HEK 293 cells stably expressing GnRHR I; settings: competition with 125I-DTyr6-His5-GnRH, HEK 293 membranes, 4 °C 16-19 h, one-site model; read-out: apparent binding affinity (IC50)
T1 construct: expressed in transfected cells
T1 sequence (P30968 1-328): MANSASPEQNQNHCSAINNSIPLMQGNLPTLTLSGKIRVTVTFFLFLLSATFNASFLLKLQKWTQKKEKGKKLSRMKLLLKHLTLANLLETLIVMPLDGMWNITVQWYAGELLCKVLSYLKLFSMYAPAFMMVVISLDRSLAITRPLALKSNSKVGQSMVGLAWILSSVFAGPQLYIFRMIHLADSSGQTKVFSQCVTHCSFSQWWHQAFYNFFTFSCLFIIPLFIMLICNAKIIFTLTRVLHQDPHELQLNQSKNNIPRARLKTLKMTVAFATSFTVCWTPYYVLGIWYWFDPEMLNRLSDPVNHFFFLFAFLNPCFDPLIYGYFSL

Which solubility [1] does the source give for `CCNC(=O)[C@@H]1CCCN1C(=O)[C@H](CCCNC(=N)N)NC(=O)[C@H](CC(C)C)NC(=O)[C@@H](CSSCC(=O)NCCCCNc1ccc(O)c2c1C(=O)c1ccccc1C2=O)NC(=O)[C@H](Cc1ccc(O)cc1)NC(=O)[C@H](CO)NC(=O)[C@H](Cc1c[nH]c2ccccc12)NC(=O)[C@H](Cc1c[nH]cn1)NC(=O)[C@@H]1CCC(=O)N1` [con4] here?
Its solubility is “solubility issues”.

Which “speed of reduction compared with insulin” value ([2]; 0.2 mM con7 vs 0.067 mM insulin (0.2 mM disulfides), 25 °C) does the source give for `CCNC(=O)[C@@H]1CCCN1C(=O)[C@H](CCCNC(=N)N)NC(=O)[C@H](CC(C)C)NC(=O)[C@@H](CCCCNC(=O)CCCCCNC(=O)CCSSCC(=O)OCCNCCNc1ccc(NCCNCCO)c2c1C(=O)c1c(O)ccc(O)c1C2=O)NC(=O)[C@H](Cc1ccc(O)cc1)NC(=O)[C@H](CO)NC(=O)[C@H](Cc1c[nH]c2ccccc12)NC(=O)[C@H](Cc1c[nH]cn1)NC(=O)[C@@H]1CCC(=O)N1` [con7] here?
The value was “more rapid”.

And the “Absorbance Asample1” value ([2]; 0 sec)?
The value was 1.004.

And the “Absorbance Asample2” value ([2]; 0 sec)?
Its value is 0.982.

And the “Absorbance Average1, 2” value ([2]; 0 sec)?
Its value is 0.993.

What about the “Absorbance Asample1” value ([2]; 9 sec) of the same compound?
Its value is 1.004.

And the “Absorbance Asample2” value ([2]; 9 sec)?
Its value is 0.980.

What about the “Absorbance Average1, 2” value ([2]; 9 sec) of the same compound?
Its value is 0.992.

And the “Absorbance Asample1” value ([2]; 18 sec)?
Its value is 1.004.

What about the “Absorbance Asample2” value ([2]; 18 sec) of the same compound?
The value was 0.981.

What about the “Absorbance Average1, 2” value ([2]; 18 sec) of the same compound?
Its value is 0.992.

And the “Absorbance Asample1” value ([2]; 27 sec)?
Its value is 1.003.

And the “Absorbance Asample2” value ([2]; 27 sec)?
The value was 0.980.

And the “Absorbance Average1, 2” value ([2]; 27 sec)?
Its value is 0.991.

And the “Absorbance Asample1” value ([2]; 36 sec)?
Its value is 1.002.

What about the “Absorbance Asample2” value ([2]; 36 sec) of the same compound?
The value was 0.978.

And the “Absorbance Average1, 2” value ([2]; 36 sec)?
Its value is 0.990.

What about the “Absorbance Asample1” value ([2]; 45 sec) of the same compound?
Its value is 1.000.

What about the “Absorbance Asample2” value ([2]; 45 sec) of the same compound?
The value was 0.979.

What about the “Absorbance Average1, 2” value ([2]; 45 sec) of the same compound?
The value was 0.989.

What about the “Absorbance Asample1” value ([2]; 54 sec) of the same compound?
Its value is 1.000.

And the “Absorbance Asample2” value ([2]; 54 sec)?
Its value is 0.977.

And the “Absorbance Average1, 2” value ([2]; 54 sec)?
The value was 0.988.

What about the “Absorbance Asample1” value ([2]; 63 sec) of the same compound?
Its value is 0.999.

And the “Absorbance Asample2” value ([2]; 63 sec)?
Its value is 0.977.

What about the “Absorbance Average1, 2” value ([2]; 63 sec) of the same compound?
The value was 0.988.

What about the “Absorbance Asample1” value ([2]; 72 sec) of the same compound?
Its value is 0.999.

What about the “Absorbance Asample2” value ([2]; 72 sec) of the same compound?
Its value is 0.976.

What about the “Absorbance Average1, 2” value ([2]; 72 sec) of the same compound?
Its value is 0.987.

And the “Absorbance Asample1” value ([2]; 81 sec)?
Its value is 0.998.

What about the “Absorbance Asample2” value ([2]; 81 sec) of the same compound?
Its value is 0.973.

And the “Absorbance Average1, 2” value ([2]; 81 sec)?
Its value is 0.985.

And the “Absorbance Asample1” value ([2]; 90 sec)?
The value was 0.997.

What about the “Absorbance Asample2” value ([2]; 90 sec) of the same compound?
Its value is 0.974.

And the “Absorbance Average1, 2” value ([2]; 90 sec)?
Its value is 0.985.

What about the “Absorbance Asample1” value ([2]; 99 sec) of the same compound?
The value was 0.996.

What about the “Absorbance Asample2” value ([2]; 99 sec) of the same compound?
Its value is 0.972.

What about the “Absorbance Average1, 2” value ([2]; 99 sec) of the same compound?
Its value is 0.984.

And the “Absorbance Asample1” value ([2]; 108 sec)?
The value was 0.996.

What about the “Absorbance Asample2” value ([2]; 108 sec) of the same compound?
The value was 0.971.

And the “Absorbance Average1, 2” value ([2]; 108 sec)?
Its value is 0.983.

And the “Absorbance Asample1” value ([2]; 117 sec)?
Its value is 0.995.

What about the “Absorbance Asample2” value ([2]; 117 sec) of the same compound?
The value was 0.971.

What about the “Absorbance Average1, 2” value ([2]; 117 sec) of the same compound?
The value was 0.983.

What about the “Absorbance Asample1” value ([2]; 126 sec) of the same compound?
The value was 0.994.

And the “Absorbance Asample2” value ([2]; 126 sec)?
The value was 0.970.

And the “Absorbance Average1, 2” value ([2]; 126 sec)?
Its value is 0.982.

And the “Absorbance Asample1” value ([2]; 135 sec)?
Its value is 0.992.

And the “Absorbance Asample2” value ([2]; 135 sec)?
Its value is 0.968.

What about the “Absorbance Average1, 2” value ([2]; 135 sec) of the same compound?
The value was 0.980.

And the “Absorbance Asample1” value ([2]; 144 sec)?
Its value is 0.991.

And the “Absorbance Asample2” value ([2]; 144 sec)?
The value was 0.967.

And the “Absorbance Average1, 2” value ([2]; 144 sec)?
Its value is 0.979.

What about the “Absorbance Asample1” value ([2]; 153 sec) of the same compound?
Its value is 0.990.

What about the “Absorbance Asample2” value ([2]; 153 sec) of the same compound?
Its value is 0.966.

What about the “Absorbance Average1, 2” value ([2]; 153 sec) of the same compound?
Its value is 0.978.

What about the “Absorbance Asample1” value ([2]; 162 sec) of the same compound?
The value was 0.990.

What about the “Absorbance Asample2” value ([2]; 162 sec) of the same compound?
Its value is 0.966.

What about the “Absorbance Average1, 2” value ([2]; 162 sec) of the same compound?
Its value is 0.978.

What about the “Absorbance Asample1” value ([2]; 171 sec) of the same compound?
The value was 0.989.

And the “Absorbance Asample2” value ([2]; 171 sec)?
The value was 0.964.

And the “Absorbance Average1, 2” value ([2]; 171 sec)?
The value was 0.977.

And the “Absorbance Asample1” value ([2]; 180 sec)?
Its value is 0.989.

What about the “Absorbance Asample2” value ([2]; 180 sec) of the same compound?
Its value is 0.965.

And the “Absorbance Average1, 2” value ([2]; 180 sec)?
The value was 0.977.

What about the “Absorbance Asample1” value ([2]; 189 sec) of the same compound?
Its value is 0.989.

What about the “Absorbance Asample2” value ([2]; 189 sec) of the same compound?
The value was 0.964.

And the “Absorbance Average1, 2” value ([2]; 189 sec)?
Its value is 0.977.

And the “Absorbance Asample1” value ([2]; 198 sec)?
Its value is 0.988.

And the “Absorbance Asample2” value ([2]; 198 sec)?
Its value is 0.962.

What about the “Absorbance Average1, 2” value ([2]; 198 sec) of the same compound?
The value was 0.975.

What about the “Absorbance Asample1” value ([2]; 207 sec) of the same compound?
Its value is 0.986.

And the “Absorbance Asample2” value ([2]; 207 sec)?
Its value is 0.961.

And the “Absorbance Average1, 2” value ([2]; 207 sec)?
The value was 0.974.

And the “Absorbance Asample1” value ([2]; 216 sec)?
The value was 0.987.

And the “Absorbance Asample2” value ([2]; 216 sec)?
Its value is 0.960.

And the “Absorbance Average1, 2” value ([2]; 216 sec)?
The value was 0.974.

And the “Absorbance Asample1” value ([2]; 225 sec)?
Its value is 0.985.

What about the “Absorbance Asample2” value ([2]; 225 sec) of the same compound?
Its value is 0.959.

And the “Absorbance Average1, 2” value ([2]; 225 sec)?
The value was 0.972.

What about the “Absorbance Asample1” value ([2]; 234 sec) of the same compound?
The value was 0.984.

What about the “Absorbance Asample2” value ([2]; 234 sec) of the same compound?
The value was 0.957.

And the “Absorbance Average1, 2” value ([2]; 234 sec)?
Its value is 0.971.

And the “Absorbance Asample1” value ([2]; 243 sec)?
The value was 0.984.

And the “Absorbance Asample2” value ([2]; 243 sec)?
The value was 0.955.

And the “Absorbance Average1, 2” value ([2]; 243 sec)?
Its value is 0.970.

What about the “Absorbance Asample1” value ([2]; 252 sec) of the same compound?
Its value is 0.982.

And the “Absorbance Asample2” value ([2]; 252 sec)?
The value was 0.954.

What about the “Absorbance Average1, 2” value ([2]; 252 sec) of the same compound?
Its value is 0.968.

What about the “Absorbance Asample1” value ([2]; 261 sec) of the same compound?
Its value is 0.982.

What about the “Absorbance Asample2” value ([2]; 261 sec) of the same compound?
The value was 0.952.

And the “Absorbance Average1, 2” value ([2]; 261 sec)?
The value was 0.967.

What about the “Absorbance Asample1” value ([2]; 270 sec) of the same compound?
Its value is 0.980.

What about the “Absorbance Asample2” value ([2]; 270 sec) of the same compound?
Its value is 0.952.

And the “Absorbance Average1, 2” value ([2]; 270 sec)?
The value was 0.966.

And the “Absorbance Asample1” value ([2]; 279 sec)?
Its value is 0.981.

And the “Absorbance Asample2” value ([2]; 279 sec)?
Its value is 0.951.

What about the “Absorbance Average1, 2” value ([2]; 279 sec) of the same compound?
The value was 0.966.

What about the “Absorbance Asample1” value ([2]; 288 sec) of the same compound?
The value was 0.979.

What about the “Absorbance Asample2” value ([2]; 288 sec) of the same compound?
Its value is 0.949.

And the “Absorbance Average1, 2” value ([2]; 288 sec)?
Its value is 0.964.

And the “Absorbance Asample1” value ([2]; 297 sec)?
Its value is 0.978.

What about the “Absorbance Asample2” value ([2]; 297 sec) of the same compound?
The value was 0.949.

And the “Absorbance Average1, 2” value ([2]; 297 sec)?
Its value is 0.963.

And the “reduction of disulfide bond by the thioredoxin system” value ([2]; decrease of NADPH absorbance over time in samples containing TrxR)?
Its value is “successful”.

And the IC50 [3]?
Its IC50 is 0.06 nM.
